From the NIST ThermoML archive (doi:10.1016/j.fluid.2009.09.024)
Where “and” joins values, the source holds several entries; their conditions need not be identical. Identical values can stand only once.

Legend:
[1] = for vapor or sublimation pressure: Closed cell (Static) method; for mass density: Vibrating tube method
[2] = xn = mol fraction of the nth substance listed; conditions: Liquid, Vibrating tube method

O=S1(=O)CCCC1 [sulfolane]
[1], Liquid
Conditions	mass density [kg/m3]	vapor or sublimation pressure [kPa]
333.15 K	1231.12	0.01
353.15 K	1214.39	0.04

CCCCCCCCC [nonane] + c1ccccc1
mass density [kg/m3], [2]
Conditions	333.15 K	353.15 K
x2 = 0	685.961	669.919
x2 = 0.1	700.985	–
x2 = 0.101	–	684.481
x2 = 0.199	–	698.728
x2 = 0.2	715.957	–
x2 = 0.248	–	705.756
x2 = 0.3	–	713.217
x2 = 0.302	731.175	–
x2 = 0.399	–	727.581
x2 = 0.404	746.508	–
x2 = 0.499	–	741.992
x2 = 0.502	761.194	–
x2 = 0.599	775.788	756.286
x2 = 0.699	790.766	–
x2 = 0.701	–	771.023
x2 = 0.799	805.683	785.21
x2 = 0.899	820.654	799.582
x2 = 0.94	826.713	–
x2 = 0.969	831.191	–

CCCCCCCCC [nonane]
[1]
Conditions	mass density, 333.15 K [kg/m3]	mass density, 353.15 K [kg/m3]	vapor or sublimation pressure, 333.15 K [kPa]	vapor or sublimation pressure, 353.15 K [kPa]
Gas	0.1868	0.4513	–	–
Liquid	685.961	669.919	3.97	10.28

O=S1(=O)CCCC1 [sulfolane] + Cc1ccccc1C
mass density [kg/m3], [2]
Conditions	333.15 K	353.15 K
x2 = 0	1231.12	1214.39
x2 = 0.01	1227.27	1210.53
x2 = 0.015	1225.35	1208.6
x2 = 0.02	1223.42	1206.67
x2 = 0.03	1219.57	1202.81
x2 = 0.1	1192.25	1175.45
x2 = 0.2	1153.84	1136.98
x2 = 0.3	1115.37	1098.46
x2 = 0.4	1076.99	1060.02
x2 = 0.499	1038.59	1021.56
x2 = 0.599	1000.24	983.157
x2 = 0.699	961.436	944.296
x2 = 0.801	922.401	905.202
x2 = 0.899	884.731	867.477

Cc1cccc(C)c1 [1,3-dimethylbenzene] + O=S1(=O)CCCC1
[2], x1 = 1
Conditions	mass density [kg/m3]
333.15 K	829.305
353.15 K	811.602

Cc1ccccc1C [1,2-dimethylbenzene] + O=S1(=O)CCCC1
[2], x1 = 1
Conditions	mass density [kg/m3]
333.15 K	845.839
353.15 K	828.528

Cc1ccccc1C [1,2-dimethylbenzene] + Cc1ccccc1
mass density [kg/m3], [2]
Conditions	333.15 K	353.15 K
x2 = 0	845.8	828.5
x2 = 0.102	–	826.692
x2 = 0.108	844.136	–
x2 = 0.202	–	824.931
x2 = 0.203	842.673	–
x2 = 0.299	–	823.222
x2 = 0.301	841.173	–
x2 = 0.4	839.661	821.449
x2 = 0.499	838.134	819.705
x2 = 0.6	–	817.918
x2 = 0.601	836.576	–
x2 = 0.699	835.072	816.176
x2 = 0.799	–	814.417
x2 = 0.8	833.533	–
x2 = 0.899	–	812.661
x2 = 0.9	831.999	–

c1ccccc1 [benzene]
[1]
Conditions	mass density, 333.15 K [kg/m3]	mass density, 353.15 K [kg/m3]	vapor or sublimation pressure, 333.15 K [kPa]	vapor or sublimation pressure, 353.15 K [kPa]
Gas	1.5172	2.69	–	–
Liquid	835.696	814.086	52.45	100

Cc1ccccc1C [1,2-dimethylbenzene]
[1]
Conditions	mass density, 333.15 K	mass density, 353.15 K	vapor or sublimation pressure, 333.15 K	vapor or sublimation pressure, 353.15 K
Gas	–	0.4397 kg/m3 and 0.4571 kg/m3	–	–
Liquid	845.8 kg/m3 and 845.839 kg/m3	828.5 kg/m3 and 828.528 kg/m3	5.32 kPa and 5.44 kPa	12.8 kPa and 12.66 kPa

c1ccccc1 [benzene] + CCCCCCCCC
[2], x1 = 1
Conditions	mass density [kg/m3]
333.15 K	835.696
353.15 K	814.086

O=S1(=O)CCCC1 [sulfolane] + Cc1cccc(C)c1
mass density [kg/m3], [2]
Conditions	333.15 K	353.15 K
x2 = 0	1231.12	1214.39
x2 = 0.01	1227.11	–
x2 = 0.015	1225.1	1208.34
x2 = 0.02	1223.09	1206.33
x2 = 0.03	1219.07	1202.3
x2 = 0.05	–	1194.25
x2 = 0.1	1190.81	1173.97
x2 = 0.199	1150.86	1133.93
x2 = 0.299	1110.94	1093.91
x2 = 0.399	1070.45	1053.33
x2 = 0.501	1029.46	1012.24
x2 = 0.6	989.939	972.621
x2 = 0.7	949.485	932.07
x2 = 0.799	909.766	892.257
x2 = 0.9	869.443	851.836

Cc1ccccc1 [toluene]
[1]
Conditions	mass density, 333.15 K [kg/m3]	mass density, 353.15 K [kg/m3]	vapor or sublimation pressure, 333.15 K [kPa]	vapor or sublimation pressure, 353.15 K [kPa]
Gas	0.6829	1.3863	–	–
Liquid	830.467	810.89	18.62	38.4

Cc1cccc(C)c1 [1,3-dimethylbenzene]
[1]
Conditions	mass density, 333.15 K [kg/m3]	mass density, 353.15 K [kg/m3]	vapor or sublimation pressure, 333.15 K [kPa]	vapor or sublimation pressure, 353.15 K [kPa]
Gas	0.252	0.5448	–	–
Liquid	829.305	811.602	6.59	15.09

Cc1ccccc1 [toluene] + Cc1ccccc1C
[2], x1 = 1
Conditions	mass density [kg/m3]
333.15 K	830.467
353.15 K	810.89
